Measured values taken from ChEMBL document CHEMBL4177732, “Anti-neuroinflammatory effects of sesquiterpenoids isolated from Nardostachys jatamansi” (Bioorg Med Chem Lett, 2018).

Columns and labels:
[1] = system: Microglia; test: Inhibition of lipopolysaccharide-induced iNOS protein expression in Sprague-Dawley rat primary microglia cells pre-incubated for 3 hrs before LPS stimulation by Western blot method; type: functional, cell-based
[2] = system: Microglia; test: Inhibition of lipopolysaccharide-induced COX2 protein expression in Sprague-Dawley rat primary microglia cells pre-incubated for 3 hrs before LPS stimulation by Western blot method; type: functional, cell-based
[3] = system: BV-2; test: Inhibition of lipopolysaccharide-induced TNFalpha production in mouse BV2 cells pre-incubated for 1 hr before LPS stimulation for 24 hrs by ELISA; type: functional, cell-based
[4] = system: BV-2; test: Inhibition of lipopolysaccharide-induced IL6 production in mouse BV2 cells pre-incubated for 1 hr before LPS stimulation for 24 hrs by ELISA; type: functional, cell-based
[5] = system: BV-2; test: Cytotoxicity in mouse BV2 cells by MTT assay; type: cell-based
[6] = system: Microglia; test: Inhibition of lipopolysaccharide-induced IL6 production in Sprague-Dawley rat primary microglia cells pre-incubated for 1 hr before LPS stimulation for 24 hrs by ELISA; type: functional, cell-based
[7] = system: Microglia; test: Inhibition of lipopolysaccharide-induced TNFalpha production in Sprague-Dawley rat primary microglia cells pre-incubated for 1 hr before LPS stimulation for 24 hrs by ELISA; type: functional, cell-based
[8] = system: BV-2; test: Inhibition of lipopolysaccharide-induced iNOS protein expression in mouse BV2 cells pre-incubated for 3 hrs before LPS stimulation by Western blot method; type: functional, cell-based
[9] = system: Microglia; test: Inhibition of lipopolysaccharide-induced PGE2 production in Sprague-Dawley rat primary microglia cells pre-incubated for 1 hr before LPS stimulation for 24 hrs; type: functional, cell-based
[10] = system: BV-2; test: Inhibition of lipopolysaccharide-induced IL-1beta production in mouse BV2 cells pre-incubated for 1 hr before LPS stimulation for 24 hrs by ELISA; type: functional, cell-based
[11] = system: BV-2; test: Inhibition of lipopolysaccharide-induced COX2 protein expression in mouse BV2 cells pre-incubated for 3 hrs before LPS stimulation by Western blot method; type: functional, cell-based
[12] = system: Microglia; test: Inhibition of lipopolysaccharide-induced nitric oxide production in Sprague-Dawley rat primary microglia cells assessed as reduction in nitrite level by Griess reaction based ELISA; type: functional, cell-based
[13] = system: Microglia; test: Inhibition of lipopolysaccharide-induced IL-1beta production in Sprague-Dawley rat primary microglia cells pre-incubated for 1 hr before LPS stimulation for 24 hrs by ELISA; type: functional, cell-based
[14] = system: BV-2; test: Inhibition of lipopolysaccharide-induced nitric oxide production in mouse BV2 cells assessed as reduction in nitrite level by Griess reaction based ELISA; type: functional, cell-based
[15] = system: BV-2; test: Inhibition of lipopolysaccharide-induced PGE2 production in mouse BV2 cells pre-incubated for 1 hr before LPS stimulation for 24 hrs; type: functional, cell-based
[16] = system: BV-2; test: Inhibition of lipopolysaccharide-induced nitric oxide production in mouse BV2 cells assessed as reduction in nitrite level at 60 uM by Griess reaction based ELISA; type: functional

Structure (SMILES) | Activity [5] | IC50 [14] [µM] | inhibition [14] | inhibition at 60 µM [16] [%] | other results
C[C@@H]1C[C@H](O)C=C2C(=O)C=C[C@@H](O)[C@]21C [NARCHINOL B] | Non-Toxic | 2.43 | Dose-dependent effect | – | inhibition [1]: Dose-dependent effect; inhibition [2]: Dose-dependent effect; IC50 [3]: 1.7 µM; IC50 [4]: 2.9 µM; IC50 [6]: 4 µM; IC50 [7]: 9.83 µM; inhibition [8]: Dose-dependent effect; IC50 [9]: 3.1 µM; IC50 [10]: 1.73 µM; inhibition [11]: Dose-dependent effect; IC50 [12]: 4.17 µM; IC50 [13]: 3.11 µM; IC50 [15]: 2.38 µM
CC(C)(O)C[C@@H]1CC[C@]2(C)[C@@H](O)CC[C@@](C)(O)[C@@H]12 | Non-Toxic | – | Dose-dependent effect | 39 | –
C[C@@H]1C[C@H](O)C=C2C(=O)C=C[C@@H](C(C)(C)O)[C@]21C | Non-Toxic | 30.5 | Dose-dependent effect | – | –
C[C@@H]1CCC=C2C(=O)C=C[C@@H](O)[C@]21C | Non-Toxic | 3.48 | Dose-dependent effect | – | inhibition [1]: Dose-dependent effect; inhibition [2]: Dose-dependent effect; IC50 [3]: 2.11 µM; IC50 [4]: 3.57 µM; IC50 [6]: 3.62 µM; IC50 [7]: 3.18 µM; inhibition [8]: Dose-dependent effect; IC50 [9]: 5.33 µM; IC50 [10]: 2.04 µM; inhibition [11]: Dose-dependent effect; IC50 [12]: 4.96 µM; IC50 [13]: 5.84 µM; IC50 [15]: 2.05 µM
CC(C)C1CC[C@@](C)(O)[C@@H]2CC[C@](C)(O)[C@H]2[C@@H]1O (stereo partly drawn) | Non-Toxic | > 60 | – | 34 | –
C=C1[C@@H]2O[C@@H](OC)[C@H]3[C@@H]1C[C@H](O)[C@]3(C)O2 | Non-Toxic | > 60 | – | 39.7 | –
C[C@@H]1C[C@@H](O)C=C2C(=O)C=C[C@@H](C(C)(C)O)[C@]21C | Non-Toxic | 46.5 | Dose-dependent effect | – | –
C=C1COC(=O)[C@H]2[C@@H]1C[C@H](O)[C@@]2(C)O [JATAMANIN A] | Non-Toxic | 27.8 | Dose-dependent effect | – | –
CC(C)[C@]1(O)CC[C@@]2(C)[C@H](O)CC[C@](C)(O)[C@@H]2C1 | Non-Toxic | > 60 | – | 28.4 | –
